Columns and labels:
[1] = tested on: elderly subjects with TRD; type: in vivo, human; settings: each dosing day
Description: The Modified Observer's Assessment of Alertness/Sedation (MOAA/S) was used to measure treatment-emergent sedation with correlation to levels of sedation defined by the American Society of Anesthesiologists (ASA) continuum. The MOAA/S scores range from 0 (No response to painful stimulus; corresponds to ASA continuum for general anesthesia) to 5 (Readily responds to name spoken in normal tone [awake]; corresponds to ASA continuum for minimal sedation). The proportion of subjects with sedation was <4% for the esketamine group for each dosing day.

[2] = tested on: subjects with MDD at imminent risk for suicide; test: MADRS total score, sustained response (Study […]2001); type: in vivo, human
Description: Primary efficacy variable/Primary Time point: Change from baseline (Day 1, predose) to Day 1, 4-hours postdose in MADRS total score. The MADRS consists of 10 items that cover all of the core depressive symptoms, with each item scoring from 0 (item is not present or is normal) to 6 (severe or continuous presence of the symptom). A higher score represents a more severe condition.
The primary efficacy endpoint is the change in MADRS total score from baseline to Day 1: 4-hours postdose. MADRS total scores range from 0 to 60. […] As this is a phase 2a proof-of-concept study, statistical significance is based on a two-sided alpha level of 0.20. All p-values presented in this document are two-sided.
Sustained response is defined as at least 50% reduction from baseline in MADRS total score with onset on Day 1: 4 hours postdose that is maintained through the end of the double-blind phase (Day 25). Four subjects in the esketamine 84 mg group and 2 subjects in the placebo group had sustained response throughout the double-blind phase.

[3] = tested on: subjects with MDD at imminent risk for suicide; test: Beck Hopelessness Scale (BHS) ([…]2001); type: in vivo, human; settings: for BHS total score: change vs placebo: 84 mg
Description: The BHS is a self-reported measure to assess one's level of negative expectations or pessimism regarding the future. It consists of 20 true-false items that examine the respondent's attitude over the past week by either endorsing a pessimistic statement or denying an optimistic statement. For every statement, each response is assigned a score of 0 or 1. The total BHS score is a sum of item responses and ranges from 0 to 20, with a higher score representing a higher level of hopelessness.

[4] = tested on: subjects with MDD at imminent risk for suicide; type: in vivo, human; settings: post dose
Protocol: Transient blood pressure increases peaked for the esketamine group at approximately 40 minutes post dose with the maximum mean increases (across all dosing days) in systolic BP being 8.7 in the placebo group and 16.7 in the esketamine 84 mg group. The maximum mean increases (across all dosing days) in diastolic BP were 7.6 in the placebo group and 11.9 in the esketamine 84 mg group. […] See, FIGS. 46 and 47.

[5] = 14-day; 54 mg/day
Protocol: This study includes a single dose and 14-day repeated dose neurotoxicity studies with intranasally administered esketamine in female rats 12 to 14 weeks of age. These studies were conducted to investigate whether single or repeated intranasal administrations of esketamine induced neurodegenerative changes in the rat brain. The study results were used to estimate an esketamine exposure-based safety margin compared with the maximum dose of esketamine administered intranasally to depressed adult patients in clinical trials.
Each group of main study animals consisted of 12 female rats. Four satellite animals were added to the esketamine HCl-dosed groups of main study animals for TK purposes. The plasma exposure to esketamine was measured in these animals on the first and the last day of dosing at various time points up to and including 24 hours after the first instillation.

[6] = Pharmacokinetics of intranasal esketamine in healthy subjects (Example 9)
Protocol: Blood samples (4 mL each) for determination of esketamine and noresketamine plasma concentrations were collected into the appropriate collection tube (e.g., Vacutainer®) at timepoints 0.00, 0.12, 0.20, 0.37, 0.53, 0.67, 0.83, 1.00, 1.25, 1.50, 2.00, 3.00, 4.00, 6.00, 9.00, 12.00, 18.00, and 24.00 h. The total amount of blood to be drawn for clinical laboratory tests and PK evaluations is approximately 327 mL.
Plasma samples were analyzed for esketamine and noresketamine concentrations using the validated, specific and sensitive liquid chromatography coupled to tandem mass spectrometry (LC-MS/MS) achiral method of Example 8.
Serial PK blood samples (4 mL each) were collected for a 24-hour period from each subject (Periods 1, 2, and 3). […] Statistical Methods 1.6.4.1. Sample Size
The following key parameters of esketamine and noresketamine in plasma were calculated using noncompartmental methods and actual sampling times: Cmax, tmax, AUClast, AUC∞, t1/2,λ, and λz.

subjects with TRD [7] = settings: IND or OP/MA phases; among the 76 subjects
Description: The efficacy and safety analyses are based on the full (IND) analysis set and the full (OP/MA) analysis set. The full (IND) analysis set is defined as all subjects who receive at least 1 dose of intranasal study medication or 1 dose of oral antidepressant in the open-label IND phase (for direct-entry and transferred-entry non-responder subjects). The full (OP/MA) analysis is defined as all subjects who receive at least 1 dose of intranasal study medication or 1 dose of oral antidepressant in the OP/MA phase. Safety variables include cognition function over time, treatment-emergent adverse events (TEAEs), including TEAEs of special interest, vital signs over time, Clinician-Administered Dissociative Symptom Scale (CADDS) over time, and Modified Observer's Assessment of Alertness/Sedation (MOAA/S) score≤3.

subjects with TRD [8] = settings: post dose
Protocol: The Clinician Administered Dissociative States Scale (CADSS) was measured prior to the start of each dose, at 40 minutes, and 1.5 hours postdose.

glutamate NMDA receptor = settings: cited from earlier work
[9] = tested on: P-gp, BCRP, OATP1B1, OATP1B3, MATE1, MATE2-K, OCT2, OAT1, OAT3; test: Transporter substrate and inhibition studies; settings: not told
adult female rats [10] = test: Single-dose neuronal toxicity study (neuronal vacuolation), intranasal esketamine (label); settings: rat, in vivo
adult female rats [11] = test: Second single dose neurotoxicity study (neuronal necrosis), intranasal esketamine (label); settings: 200-gram rat
[12] = esketamine 84 mg minus placebo, ANCOVA LOCF
[13] = esketamine 84 mg, LOCF, ITT, N = 35
[14] = esketamine 84 mg, LOCF, ITT, N = 35, negative change = improvement
[15] = esketamine 84 mg, predose Day 1, ITT, N = 35

SMILES: CN[C@]1(c2ccccc2Cl)CCCCC1=O [esketamine, (S)-2-(2-chlorophenyl)-2-(methylamino)cyclohexanone]
- Proportion of subjects with sedation (post dose MOAA/S score of ≤3) [1]: < 4%
- MADRS: least-square mean difference from placebo ([2]; 84 mg, Day 1, 4-hours postdose, ANCOVA): −5.3 (2.10)
- MADRS total score, change to Day 1 (DB): 4 H, Diff. of LS Means (SE) [2, 12]: −5.3 (2.10)
- MADRS total score, change to Day 2 (DB), Diff. of LS Means (SE) [2, 12]: −7.2 (2.85)
- MADRS total score, change to End Point (DB), Diff. of LS Means (SE) [2, 12]: −4.5 (3.14)
- MADRS total score, Day 1 (DB): 4 H, Median (Range) [2, 13]: 23.0 (7; 48)
- MADRS total score, Day 2 (DB), Median (Range) [2, 13]: 18.0 (3; 42)
- MADRS total score, End Point (DB), Median (Range) [2, 13]: 8.0 (0; 44)
- MADRS total score, Change from Baseline to Day 1 (DB): 4 H, Median (Range) [2, 14]: −14.0 (−32; 1)
- MADRS total score, Change from Baseline to Day 2 (DB), Median (Range) [2, 14]: −19.0 (−41; 1)
- MADRS total score, Change from Baseline to End Point (DB), Median (Range) [2, 14]: −25.0 (−46; 13)
- MADRS total score, Baseline (DB), Median (Range) [2, 15]: 38.0 (27; 49)
- BHS total score: change vs placebo ([3]; Day 1: 4-hours postdose): no statistically significant difference
- BHS total score: change vs placebo ([3]; End Point (DB)): statistically superior
- BHS total score, change to Day 1 (DB): 4H, Diff. of LS Means (SE) [3, 12]: −1.5 (1.47)
- BHS total score, change to End Point (DB), Diff. of LS Means (SE) [3, 12]: −2.3 (1.66)
- BHS total score, Day 1 (DB): 4H, Median (Range) [3, 13]: 14.0 (0; 20)
- BHS total score, End Point (DB), Mean (SD) [3, 13]: 6.2 (5.96)
- BHS total score, End Point (DB), Median (Range) [3, 13]: 4.0 (0; 20)
- BHS total score, Change from Baseline to Day 1 (DB): 4H, Mean (SD) [3, 14]: −4.1 (5.63)
- BHS total score, Change from Baseline to Day 1 (DB): 4H, Median (Range) [3, 14]: −2.0 (−16; 2)
- BHS total score, Change from Baseline to End Point (DB), Median (Range) [3, 14]: −11.0 (−19; 0)
- BHS total score, Baseline (DB), Median (Range) [3, 15]: 17.0 (9; 20)
- Blood pressure returning to normal range by [4]: ≤ 2 h
- AUC-based safety margin compared with the maximum 84 mg clinical dose [5]: ~11 fold
- Cmax-based safety margin compared with the maximum 84 mg clinical dose [5]: approximately 17 fold
- Dose proportionality of mean plasma Cmax and AUC ([6]; 28-mg, 56-mg and 84-mg intranasal regimens): less than dose-proportional
- AUC (AUClast and AUC∞) variability ([6]; esketamine): 25.0% to 30.4
- Cmax variability (percent coefficient of variation) ([6]; esketamine, across the 3 treatment groups): 35.7% to 36.7
- Subjects with an AE leading to discontinuation of intranasal esketamine considered related to esketamine (subjects with TRD [7]): 51 subjects
- Dissociative and perceptual change symptoms (CADSS) resolved by (subjects with TRD [8]): ≤ 1.5 h
- S-Ketamine QC sample long-term storage stability (at −20° C.): 707 days at −20 °C
- S-Ketamine QC sample freeze/thaw stability (freeze (−20° C.)/thaw (room temperature)): 3 freeze (−20° C.)/thaw (room temperature) cycles
- S-Ketamine QC sample bench-top stability (room temperature): 18 hours at room temperature
- Affinity for the glutamate NMDA receptor in vitro, fold greater than R-ketamine (glutamate NMDA receptor): 3 to 4 fold
- Inhibition of P-gp, BCRP, OATP1B1, OATP1B3, MATE1, MATE2-K, OCT2, OAT1 or OAT3 [9]: do not inhibit
- Substrate of P-gp, BCRP, OATP1B1 or OATP1B3 [9]: not a substrate
- Safety margin to clinical exposure at the MRHD of 84 mg/day, AUC (adult female rats [10]): 1.8 times
- Safety margin to clinical exposure at the MRHD of 84 mg/day, Cmax (adult female rats [10]): 4.5 times
- Highest dose equivalent with no findings of neuronal necrosis (adult female rats [11]): 270 mg/kg

From patent US11980596B2 (priority 2017, dated 2024)
